Measured values from patent US20250382344A1, “Soluble GLP1/GIP/NPY2 Receptor Triple Agonists” (Boehringer Ingelheim International GmH, priority 2024, published 2025).

Assay: Solubility in 0.1 M phosphate buffer at pH 7
Assay type: physicochemical
Settings: 0.1 M phosphate buffer at pH 7, 10 mg/mL final peptide concentration, shaking 2 hours at room temperature, peptides as TFA-salts; measured sample pH 6.5-7.0
Procedure: Peptides (as TFA-salts) were weighed out in a filter unit (Mini-UniPrep Syringeless Filter 0.45 μm, Whatman PVDF), and 0.1 M phosphate buffer at pH 7 was added to achieve 10 mg/mL final peptide concentration. The peptides were dissolved by shaking the filter units horizontally at 600 rpm for 2 hours at room temperature. Samples were then filtered to remove any insoluble particles. Controls were prepared by weighing out the corresponding peptide solid material and dissolving it in an appropriate vehicle (e.g. ACN:H2O) to a final concentration of 1 mg/mL. Both, the control and sample were analyzed by reversed phase chromatography. The area under the peak of the sample was compared to the control and the solubility was calculated based on that ratio. The pH was measured and recorded for each sample.

solubility at 2 h [µg/mL] | SMILES
9000 | CC[C@H](C)[C@H](NC(=O)[C@H](CC(C)C)NC(=O)[C@H](Cc1c[nH]cn1)NC(=O)[C@H](CCCNC(=N)N)NC(=O)[C@@H](NC(=O)[C@H](Cc1ccccc1)NC(=O)[C@H](C)NC(=O)C(C)(C)NC(=O)[C@H](CCC(=O)O)NC(=O)[C@H](C)NC(=O)[C@H](CCC(N)=O)NC(=O)[C@H](CCCCN)NC(=O)[C@H](CCC(=O)O)NC(=O)[C@H](CC(C)C)NC(=O)C(C)(C)NC(=O)[C@@H](NC(=O)[C@H](CO)NC(=O)[C@H](Cc1ccc(O)cc1)NC(=O)[C@H](CC(=O)O)NC(=O)[C@H](CO)NC(=O)[C@@H](NC(=O)[C@H](Cc1ccccc1)NC(=O)[C@@H](NC(=O)CNC(=O)[C@H](CCC(=O)O)NC(=O)C(C)(C)NC(=O)[C@@H](N)Cc1ccc(O)cc1)[C@@H](C)O)[C@@H](C)O)[C@@H](C)CC)C(C)C)C(=O)N[C@@H](CC(N)=O)C(=O)N[C@@H](CCCCNC(=O)[C@@H](N)CCCCNC(=O)[C@@H](N)CCCCNC(=O)CC[C@H](NC(=O)CC[C@H](NC(=O)CC[C@H](NC(=O)CC[C@H](NC(=O)CC[C@H](NC(=O)CC[C@H](NC(=O)CCCCCCCCCCCCCCCCCCC(=O)O)C(=O)O)C(=O)O)C(=O)O)C(=O)O)C(=O)O)C(=O)O)C(=O)NC(C)(C)C(=O)N[C@H](C(=O)N[C@@H](CCCNC(=N)N)C(=O)N[C@@H](CCC(N)=O)C(=O)N[C@@H](CCCNC(=N)N)C(=O)N[C@@H](Cc1ccc(O)cc1)C(N)=O)[C@@H](C)O [Compound 82, Y-Aib-E-G-T-F-T-S-D-Y-S-I-Aib-L-E-K-Q-A-E-Aib-A-F-V-R-H-L-I-N-K(1,3)-Aib-T-R-Q-R-Y-NH2.C20DA-gGlu-gGlu-gGlu-gGlu-gGlu-gGlu-eLys-eLys(1,2)]
10000 | CC[C@H](C)[C@H](NC(=O)[C@H](CC(C)C)NC(=O)[C@H](Cc1c[nH]cn1)NC(=O)[C@H](CCCNC(=N)N)NC(=O)[C@@H](NC(=O)[C@H](Cc1ccccc1)NC(=O)[C@H](C)NC(=O)C(C)(C)NC(=O)[C@H](CCC(N)=O)NC(=O)[C@H](C)NC(=O)[C@H](CCC(N)=O)NC(=O)[C@H](CCCCN)NC(=O)[C@H](CCC(=O)O)NC(=O)[C@H](CC(C)C)NC(=O)C(C)(C)NC(=O)[C@@H](NC(=O)[C@H](CO)NC(=O)[C@H](Cc1ccc(O)cc1)NC(=O)[C@H](CC(=O)O)NC(=O)[C@H](CO)NC(=O)[C@@H](NC(=O)[C@H](Cc1ccccc1)NC(=O)[C@@H](NC(=O)[C@H](C)NC(=O)[C@H](CCC(=O)O)NC(=O)C(C)(C)NC(=O)[C@@H](N)Cc1ccc(O)cc1)[C@@H](C)O)[C@@H](C)O)[C@@H](C)CC)C(C)C)C(=O)N[C@@H](CC(N)=O)C(=O)N[C@@H](CCCCNC(=O)[C@@H](N)CCCCNC(=O)CC[C@H](NC(=O)CC[C@H](NC(=O)CC[C@H](NC(=O)CC[C@H](NC(=O)CC[C@H](NC(=O)CC[C@H](NC(=O)CCCCCCCCCCCCCCCCC(=O)O)C(=O)O)C(=O)O)C(=O)O)C(=O)O)C(=O)O)C(=O)O)C(=O)NC(C)(C)C(=O)N[C@H](C(=O)N[C@@H](CCCNC(=N)N)C(=O)N[C@@H](CCC(N)=O)C(=O)N[C@@H](CCCNC(=N)N)C(=O)N[C@@H](Cc1ccc(O)cc1)C(N)=O)[C@@H](C)O [Compound 93, Y-Aib-E-A-T-F-T-S-D-Y-S-I-Aib-L-E-K-Q-A-Q-Aib-A-F-V-R-H-L-I-N-K(1,3)-Aib-T-R-Q-R-Y-NH2.C18DA-gGlu-gGlu-gGlu-gGlu-gGlu-gGlu-eLys(1,2)]
4400 | CC[C@H](C)[C@H](NC(=O)[C@H](CC(C)C)NC(=O)[C@H](Cc1c[nH]cn1)NC(=O)[C@H](CCCNC(=N)N)NC(=O)[C@@H](NC(=O)[C@H](Cc1ccccc1)NC(=O)[C@H](C)NC(=O)C(C)(C)NC(=O)[C@H](CCC(N)=O)NC(=O)[C@H](C)NC(=O)[C@H](CCC(N)=O)NC(=O)CNC(=O)[C@H](CCC(=O)O)NC(=O)[C@H](CC(C)C)NC(=O)C(C)(C)NC(=O)[C@@H](NC(=O)[C@H](CO)NC(=O)[C@H](Cc1ccc(O)cc1)NC(=O)[C@H](CC(=O)O)NC(=O)[C@H](CO)NC(=O)[C@@H](NC(=O)[C@H](Cc1ccccc1)NC(=O)[C@@H](NC(=O)CNC(=O)[C@H](CCC(=O)O)NC(=O)C(C)(C)NC(=O)[C@@H](N)Cc1ccc(O)cc1)[C@@H](C)O)[C@@H](C)O)[C@@H](C)CC)C(C)C)C(=O)N[C@@H](CC(N)=O)C(=O)N[C@@H](CCCCNC(=O)[C@@H](N)CCCCNC(=O)CC[C@H](NC(=O)CC[C@H](NC(=O)CC[C@H](NC(=O)CC[C@H](NC(=O)CC[C@H](NC(=O)CC[C@H](NC(=O)CCCCCCCCCCCCCCCCC(=O)O)C(=O)O)C(=O)O)C(=O)O)C(=O)O)C(=O)O)C(=O)O)C(=O)NC(C)(C)C(=O)N[C@H](C(=O)N[C@@H](CCCNC(=N)N)C(=O)N[C@@H](CCC(N)=O)C(=O)N[C@@H](CCCNC(=N)N)C(=O)N[C@@H](Cc1ccc(O)cc1)C(N)=O)[C@@H](C)O [Compound 95, Y-Aib-E-G-T-F-T-S-D-Y-S-I-Aib-L-E-G-Q-A-Q-Aib-A-F-V-R-H-L-I-N-K(1,3)-Aib-T-R-Q-R-Y-NH2.C18DA-gGlu-gGlu-gGlu-gGlu-gGlu-gGlu-eLys(1,2)]

Same assay, conditions: 0.1 M phosphate buffer at pH 7, 10 mg/mL final peptide concentration, shaking 2 hours at room temperature, peptides as TFA-salts; measured sample pH 6.5-7.0; read-out: Solubility

solubility [µg/mL] | SMILES
5000 | CC[C@H](C)[C@H](NC(=O)[C@H](CC(C)C)NC(=O)[C@H](Cc1c[nH]cn1)NC(=O)[C@H](CCCNC(=N)N)NC(=O)[C@@H](NC(=O)[C@H](Cc1ccccc1)NC(=O)[C@H](CCC(=O)O)NC(=O)C(C)(C)NC(=O)[C@H](CCC(N)=O)NC(=O)[C@H](C)NC(=O)[C@H](CCC(N)=O)NC(=O)[C@H](CCCCN)NC(=O)[C@H](CCC(=O)O)NC(=O)[C@H](CC(C)C)NC(=O)C(C)(C)NC(=O)[C@@H](NC(=O)[C@H](CO)NC(=O)[C@H](Cc1ccc(O)cc1)NC(=O)[C@H](CC(=O)O)NC(=O)[C@H](CO)NC(=O)[C@@H](NC(=O)[C@H](Cc1ccccc1)NC(=O)[C@@H](NC(=O)CNC(=O)[C@H](CCC(=O)O)NC(=O)C(C)(C)NC(=O)[C@@H](N)Cc1ccc(O)cc1)[C@@H](C)O)[C@@H](C)O)[C@@H](C)CC)C(C)C)C(=O)N[C@@H](CC(N)=O)C(=O)N[C@@H](CCCCNC(=O)CCCCCNC(=O)CC[C@H](NC(=O)[C@H](CCC(=O)O)NC(=O)CC[C@H](NC(=O)CC[C@H](NC(=O)CC[C@H](NC(=O)CCCCCCCCCCCCCCCCC(=O)O)C(=O)O)C(=O)O)C(=O)O)C(=O)O)C(=O)N[C@@H](CC(C)C)C(=O)N[C@H](C(=O)N[C@@H](CCCNC(=N)N)C(=O)N[C@@H](CCC(N)=O)C(=O)N[C@@H](CCCNC(=N)N)C(=O)N[C@@H](Cc1ccc(O)cc1)C(N)=O)[C@@H](C)O [Compound 45, Y-Aib-E-G-T-F-T-S-D-Y-S-I-Aib-L-E-K-Q-A-Q-Aib-E-F-V-R-H-L-I-N-K(1,3)-L-T-R-Q-R-Y-NH2.C18DA-gGlu-gGlu-gGlu-gGlu-gGlu-AHX(1,2)]
9400 | CC[C@H](C)[C@H](NC(=O)[C@H](CC(C)C)NC(=O)[C@H](Cc1c[nH]cn1)NC(=O)[C@H](CCCNC(=N)N)NC(=O)[C@@H](NC(=O)[C@H](Cc1ccccc1)NC(=O)[C@H](C)NC(=O)C(C)(C)NC(=O)[C@H](CCC(N)=O)NC(=O)[C@H](C)NC(=O)[C@H](CCC(N)=O)NC(=O)[C@H](CCCCN)NC(=O)[C@H](CCC(=O)O)NC(=O)[C@H](CC(C)C)NC(=O)C(C)(C)NC(=O)[C@@H](NC(=O)[C@H](CO)NC(=O)[C@H](Cc1ccc(O)cc1)NC(=O)[C@H](CC(=O)O)NC(=O)[C@H](CO)NC(=O)[C@@H](NC(=O)[C@H](Cc1ccccc1)NC(=O)[C@@H](NC(=O)CNC(=O)[C@H](CCC(=O)O)NC(=O)C(C)(C)NC(=O)[C@@H](N)Cc1ccc(O)cc1)[C@@H](C)O)[C@@H](C)O)[C@@H](C)CC)C(C)C)C(=O)N[C@@H](CC(N)=O)C(=O)N[C@@H](CCCCNC(=O)CC[C@H](NC(=O)CC[C@H](NC(=O)[C@@H](N)CCCCNC(=O)CC[C@H](NC(=O)CC[C@H](NC(=O)CC[C@H](NC(=O)CC[C@H](NC(=O)CCCCCCCCCCCCCCCCCCC(=O)O)C(=O)O)C(=O)O)C(=O)O)C(=O)O)C(=O)O)C(=O)O)C(=O)NC(C)(C)C(=O)N[C@H](C(=O)N[C@@H](CCCNC(=N)N)C(=O)N[C@@H](CCC(N)=O)C(=O)N[C@@H](CCCNC(=N)N)C(=O)N[C@@H](Cc1ccc(O)cc1)C(N)=O)[C@@H](C)O [Compound 52, Y-Aib-E-G-T-F-T-S-D-Y-S-I-Aib-L-E-K-Q-A-Q-Aib-A-F-V-R-H-L-I-N-K(1,3)-Aib-T-R-Q-R-Y-NH2.C20DA-gGlu-gGlu-gGlu-gGlu-eLys-gGlu-gGlu(1,2)]
9100 | CC[C@H](C)[C@H](NC(=O)[C@H](Cc1ccccc1)NC(=O)[C@H](C)NC(=O)C(C)(C)NC(=O)[C@H](CCC(N)=O)NC(=O)[C@H](C)NC(=O)[C@H](CCC(N)=O)NC(=O)[C@H](CCCCN)NC(=O)[C@H](CC(=O)O)NC(=O)[C@H](CC(C)C)NC(=O)C(C)(C)NC(=O)[C@@H](NC(=O)[C@H](CO)NC(=O)[C@H](Cc1ccc(O)cc1)NC(=O)[C@H](CC(=O)O)NC(=O)[C@H](CO)NC(=O)[C@@H](NC(=O)[C@H](Cc1ccccc1)NC(=O)[C@@H](NC(=O)CNC(=O)[C@H](CCC(=O)O)NC(=O)C(C)(C)NC(=O)[C@@H](N)Cc1ccc(O)cc1)[C@@H](C)O)[C@@H](C)O)[C@@H](C)CC)C(=O)N[C@@H](CCCNC(=N)N)C(=O)N[C@@H](Cc1c[nH]cn1)C(=O)N[C@@H](CC(C)C)C(=O)N[C@H](C(=O)N[C@@H](CC(N)=O)C(=O)N[C@@H](CCCCNC(=O)[C@@H](N)CCCCNC(=O)CC[C@H](NC(=O)CC[C@H](NC(=O)CC[C@H](NC(=O)CC[C@H](NC(=O)CC[C@H](NC(=O)CC[C@H](NC(=O)CCCCCCCCCCCCCCCCC(=O)O)C(=O)O)C(=O)O)C(=O)O)C(=O)O)C(=O)O)C(=O)O)C(=O)NC(C)(C)C(=O)N[C@H](C(=O)N[C@@H](CCCNC(=N)N)C(=O)N[C@@H](CCC(N)=O)C(=O)N[C@@H](CCCNC(=N)N)C(=O)N[C@@H](Cc1ccc(O)cc1)C(N)=O)[C@@H](C)O)[C@@H](C)CC [Compound 102, Y-Aib-E-G-T-F-T-S-D-Y-S-I-Aib-L-D-K-Q-A-Q-Aib-A-F-I-R-H-L-I-N-K(1,3)-Aib-T-R-Q-R-Y-NH2.C18DA-gGlu-gGlu-gGlu-gGlu-gGlu-gGlu-eLys(1,2)]
